Where “and” joins values, the source holds several entries; their conditions need not be identical. Identical values can stand only once.
What was measured:
[1] = target: insulin receptor A (Homo sapiens, UniProt P06213); assay: Insulin receptor affinity; format: binding; settings: relative to affinity of human insulin for insulin receptor A (100%)
[2] = PK studies: intravenous and subcutaneous administration to SD rats, insulin-Fc concentrations by immuno-assay; format: in vivo; settings: for PK rat sc [T½ (h)] Mean Value: subcutaneous
Method: Insulin-Fc conjugates were tested in vivo by intravenous and subcutaneous administration to SD rats. Blood samples were collected and the insulin-Fc concentrations were measured by immuno-assay.

[3] = tested on: Sprague-Dawley rats; assay: PD studies: blood glucose after subcutaneous dosing; format: in vivo; settings: sc, dose 30 nmol/kg
In short: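 Normal male Sprague-Dawley rats (~350 g), fed ad libitum, received a single subcutaneous neck dose of 30 nmol/kg unless otherwise stated. Tongue-vein blood was sampled up to 10 days post-dose for blood glucose (Biosen analyser) and plasma insulin.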

[4] = tested on: isolated rat adipocytes; assay: Insulin-stimulated lipogenesis; format: cell-based; settings: 1% HSA; relative to the activity of human insulin (100%)
Method: Insulin-stimulated lipogenesis was measured in isolated rat adipocytes in presence of 1% HSA as described in Moody A J, Stan M A, Stan M, Gliemann J. A Simple Free Fat Cell Bioassay for Insulin. Hormone And Metabolic Research. 1974; 6(1):12-6, see results in Table 6.

insulin receptor A, sequence (P06213 28-1370 isoform P06213-2 limits assumed): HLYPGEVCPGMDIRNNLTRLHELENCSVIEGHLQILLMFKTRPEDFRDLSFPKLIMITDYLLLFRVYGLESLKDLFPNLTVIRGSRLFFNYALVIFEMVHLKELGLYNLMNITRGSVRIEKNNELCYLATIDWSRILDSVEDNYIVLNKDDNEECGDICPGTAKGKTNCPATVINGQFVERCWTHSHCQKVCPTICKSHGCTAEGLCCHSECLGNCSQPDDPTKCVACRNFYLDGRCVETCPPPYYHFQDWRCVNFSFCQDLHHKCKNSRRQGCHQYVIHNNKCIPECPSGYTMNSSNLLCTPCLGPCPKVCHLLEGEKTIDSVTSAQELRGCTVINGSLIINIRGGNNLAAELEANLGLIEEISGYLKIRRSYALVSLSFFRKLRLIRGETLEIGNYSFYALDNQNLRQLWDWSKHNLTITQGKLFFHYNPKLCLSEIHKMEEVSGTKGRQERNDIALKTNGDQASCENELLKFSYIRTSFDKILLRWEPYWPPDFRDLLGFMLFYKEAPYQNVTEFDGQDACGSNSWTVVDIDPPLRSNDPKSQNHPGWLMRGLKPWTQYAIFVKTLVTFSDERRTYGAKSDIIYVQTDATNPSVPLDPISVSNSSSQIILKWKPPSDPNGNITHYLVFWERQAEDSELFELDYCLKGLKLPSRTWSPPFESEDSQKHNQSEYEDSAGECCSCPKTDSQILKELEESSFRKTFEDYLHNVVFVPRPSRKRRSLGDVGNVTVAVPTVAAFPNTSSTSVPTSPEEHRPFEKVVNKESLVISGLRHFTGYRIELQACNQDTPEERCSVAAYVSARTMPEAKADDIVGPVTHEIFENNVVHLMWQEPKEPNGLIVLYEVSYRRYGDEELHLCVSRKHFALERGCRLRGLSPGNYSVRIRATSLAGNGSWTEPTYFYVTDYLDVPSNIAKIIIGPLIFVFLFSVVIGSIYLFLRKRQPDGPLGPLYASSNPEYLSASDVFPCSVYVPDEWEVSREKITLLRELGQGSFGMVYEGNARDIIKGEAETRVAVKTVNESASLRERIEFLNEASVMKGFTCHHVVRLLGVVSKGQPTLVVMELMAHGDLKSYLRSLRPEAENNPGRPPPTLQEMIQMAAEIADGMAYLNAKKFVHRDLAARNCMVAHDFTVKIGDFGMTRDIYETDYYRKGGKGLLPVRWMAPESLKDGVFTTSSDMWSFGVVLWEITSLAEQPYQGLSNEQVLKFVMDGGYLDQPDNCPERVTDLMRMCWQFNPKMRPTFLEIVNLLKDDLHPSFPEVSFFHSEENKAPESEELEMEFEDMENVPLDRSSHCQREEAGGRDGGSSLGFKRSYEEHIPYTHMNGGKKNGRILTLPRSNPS
insulin receptor A, sequence (P06213 763-1382 partner limits assumed): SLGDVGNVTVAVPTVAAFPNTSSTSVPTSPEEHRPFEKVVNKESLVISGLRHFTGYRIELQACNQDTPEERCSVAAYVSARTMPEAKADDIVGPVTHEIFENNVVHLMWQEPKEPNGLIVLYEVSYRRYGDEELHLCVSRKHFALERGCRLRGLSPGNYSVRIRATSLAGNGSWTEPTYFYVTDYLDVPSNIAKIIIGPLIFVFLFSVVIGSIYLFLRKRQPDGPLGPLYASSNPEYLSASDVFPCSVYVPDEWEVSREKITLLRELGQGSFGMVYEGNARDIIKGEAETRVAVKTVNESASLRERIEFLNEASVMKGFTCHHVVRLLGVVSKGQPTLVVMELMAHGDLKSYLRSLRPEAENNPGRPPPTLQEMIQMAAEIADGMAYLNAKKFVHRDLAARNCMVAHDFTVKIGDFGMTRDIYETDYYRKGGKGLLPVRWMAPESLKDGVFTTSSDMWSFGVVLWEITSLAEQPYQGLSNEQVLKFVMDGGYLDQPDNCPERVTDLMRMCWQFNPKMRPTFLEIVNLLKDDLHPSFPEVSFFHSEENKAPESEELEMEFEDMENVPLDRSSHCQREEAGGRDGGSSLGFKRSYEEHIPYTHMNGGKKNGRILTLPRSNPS

| Substance | Insulin receptor affinity [IC50 relative to HI (%)] Mean Value [1] [%] | PK rat iv [T½ (h)] Mean Value [2] [h] | PK rat sc [T½ (h)] Mean Value [2] [h] | Average blood glucose ([3]; time 0 days) [mM] | Average blood glucose ([3]; time 0.041667 days) [mM] | Average blood glucose ([3]; time 0.125 days) [mM] | Average blood glucose ([3]; time 0.291667 days) [mM] | Average blood glucose ([3]; time 1 day) [mM] | Average blood glucose ([3]; time 2 days) [mM] | Average blood glucose ([3]; time 3 days) [mM] | Average blood glucose ([3]; time 4 days) [mM] | Average blood glucose ([3]; time 6 days) [mM] | Average blood glucose ([3]; time 7 days) [mM] | Average blood glucose ([3]; time 8 days) [mM] | Lipogenesis in rat adipocytes [Potency (%)] Mean Value [4] [%] | Average blood glucose ([3]; time 9 days) [mM] | Average blood glucose ([3]; time 10 days) [mM] | other results |
| --- | --- | --- | --- | --- | --- | --- | --- | --- | --- | --- | --- | --- | --- | --- | --- | --- | --- | --- |
| (A14E, A21G, A22(GQAP)19, A98K^, A99P, B25H, B29R, desB30 human insulin)/(227A, 234A, 235K, 297E, 315Q, 384Q, des447 hIgG4-Fc(228-447))6-[bis[2-[(2-acetyl)amino]ethyl]amino]-6-oxo-hexanoyl conjugate [Example 5.16] | 3.86 | 25.7 | 36.2 | 6.544 | 5.972 | 4.74 | 4.028 | 2.42 | 2.592 | 3.156 | 5.7 | 5.784 | 5.848 | 5.72 | 4.34 | – | – | – |
| (A14E, A21G, A22(GQAP)24, A118G, A119Q, A120A, A121K^, A122P, B25H, B29R, desB30 human insulin)/(227A, 234A, 235K, 297E, 315Q, 384Q, des447 hIgG4-Fc(228-447))4-[bis[2-[(2-acetyl)amino]ethyl]amino]-4-oxo-butanoyl Conjugate [Example 5.23] | 4.70 | 57.1 | 73.2 | 5.384 | 5.768 | 4.808 | 4.136 | 2.86 | 2.6 | 3.536 | 5.544 | 5.796 | 6.056 | 5.672 | 5.36 | 5.62 | 6.308 | Average blood glucose ([3]; time 5 days): 5.684 mM |
| (A14E, A21G, A22(GQEP)19, A98K^, A99P, B25H, B29R, desB30 human insulin)/(227A, 234A, 235K, 297E, 315Q, 384Q, des447 hIgG4-Fc(228-447))4-[bis[2-[(2-acetyl)amino]ethyl]amino]-4-oxo-butanoyl Conjugate [Example 5.12] | 1.85 | 23.3 | 25.1 | – | – | – | – | – | – | – | – | – | – | – | 2.35 | 5.204 | 5.556 | Average blood glucose ([3]; time 0 days, listed as Ex 5.12): 5.816 mM and 5.516 mM; Average blood glucose ([3]; time 0.041667 days, listed as Ex 5.12): 5.598 mM and 6.16 mM; Average blood glucose ([3]; time 0.125 days, listed as Ex 5.12): 5.674 mM and 4.608 mM; Average blood glucose ([3]; time 0.208333 days): 5.338 mM; Average blood glucose ([3]; time 0.291667 days, listed as Ex 5.12): 4.598 mM and 3.988 mM; Average blood glucose ([3]; time 1 day, listed as Ex 5.12): 2.986 mM and 2.88 mM; Average blood glucose ([3]; time 2 days, listed as Ex 5.12): 2.524 mM and 2.348 mM; Average blood glucose ([3]; time 3 days, listed as Ex 5.12): 2.576 mM and 2.972 mM; Average blood glucose ([3]; time 4 days, listed as Ex 5.12): 3.284 mM and 6.028 mM; Average blood glucose ([3]; time 5 days, listed as Ex 5.12): 6.884 mM and 6.06 mM; Average blood glucose ([3]; time 6 days, listed as Ex 5.12): 6.506 mM and 5.74 mM; Average blood glucose ([3]; time 7 days, listed as Ex 5.12): 6.202 mM and 5.716 mM; Average blood glucose ([3]; time 8 days, listed as Ex 5.12): 6.046 mM and 5.568 mM |
| A14E, A21G, A22(GQAPGQAPGQEP)6-GQAP, A98K^, A99P, B29R, desB30 human insulin/(227A, 234A, 235K, 297E, 315Q, 384Q, des447 hIgG4-Fc(228-447))4-[bis[2-[(2-acetyl)amino]ethyl]amino]-4-oxo-butanoyl Conjugate [Example 5.19] | 4.00 | 30.8 | 55.0 | 6.4 | 5.988 | 4.92 | 3.84 | 2.632 | 2.62 | 4.312 | 6.104 | 5.9 | 6.128 | 5.512 | 3.02 | – | – | – |
| A14E, A21G, A22(GQAPGQEP)6, A70K^, A71P, B25H, B29R, desB30 human insulin/(227A, 234A, 235K, 297E, 315Q, 384Q, des447 hIgG4-Fc(228-447))4-[bis[2-[(2-acetyl)amino]ethyl]amino]-4-oxo-butanoyl Conjugate [Example 5.14] | 5.37 | 46.6 | 54.0 | 6.248 | 5.32 | 4.08 | 3.048 | 2.356 | 2.4 | 2.832 | 4.304 | 6.032 | 6.076 | 5.5 | 4.86 | – | – | – |
| A14E, A21G, A22(GQEP)12, A70K^, A71P, B25H, B29R, desB30 human insulin/(227A, 234A, 235K, 297E, 315Q, 384Q, des447 hIgG4-Fc(228-447))4-[bis[2-[(2-acetyl)amino]ethyl]amino]-4-oxo-butanoyl Conjugate [Example 5.17] | 3.98 | 46.2 | 40.3 | 6.372 | 5.84 | 5.14 | 3.672 | 2.6 | 2.704 | 2.772 | 5.232 | 5.88 | 5.908 | 5.656 | 4.39 | – | – | – |
